Test results published in patent publication US6749336B2, “Ionic liquid temperature sensor” (priority 2002, dated 2004).

Test system: not listed separately
Assay: decomposition temperature of ionic liquids
Assay type: physicochemical
Settings: 1-alkyl-pyridinium ionic liquids, Table 3, citation not given

SMILES	Decomposition Temperature
CCCCc1ccc[nH+]c1.F[P-](F)(F)(F)(F)F [[3-n-butyl-pyridinium] [PF6]]	125-444 °C
CCCC[n+]1ccc(C)cc1.F[P-](F)(F)(F)(F)F [[1-butyl-4-methylpyridinium] [PF6]]	358 °C
CCCC[n+]1cccc(C)c1.F[P-](F)(F)(F)(F)F [[1-butyl-3-methylpyridinium] [PF6]]	347 °C
CCCC[n+]1ccc(C)cc1.[Cl-] [[1-butyl-4-methylpyridinium] Cl]	214 °C
CCCCCC[n+]1ccc(C)cc1.[Cl-] [[1-hexyl-4-methylpyridinium] Cl]	218 °C
CCCC[n+]1ccc(C)cc1.F[B-](F)(F)F [[1-butyl-4-methylpyridinium] [BF4]]	332 °C
F[P-](F)(F)(F)(F)F.c1ccc(CCCc2cc[nH+]cc2)cc1 [[4-phenylpropyl-pyridinium] [PF6]]	163-474 °C

Test system: rats
Assay: not given
Settings: acute toxicity; cited from earlier work

SMILES	LD50
CCCCCCOCn1cc[n+](C)c1.F[B-](F)(F)F [1-hexyloxymethyl-3-methylimidazolium tetrafluoroborate]	1400 mg/kg

Test system: not given
Assay: not given
Settings: 1-alkyl-3-methylimidazolium ionic liquids, Table 2, literature citations a-g; cited from earlier work

SMILES	Decomposition Temperature
CCCCCCn1cc[n+](C)c1.[Cl-] [[C6mim] Cl]	253 °C
CCCCn1cc[n+](C)c1.F[P-](F)(F)(F)(F)F [[C4mim] [PF6]]	349 °C
CCCCn1cc[n+](C)c1.[I-] [[C4mim] I]	265 °C
CCCCCCn1cc[n+](C)c1.F[P-](F)(F)(F)(F)F [[C6mim] [PF6]]	417 °C
CCCn1cc[n+](C)c1.F[P-](F)(F)(F)(F)F [[C3mim] [PF6]]	335 °C
CCCCn1cc[n+](C)c1.[Cl-] [[C4mim] Cl]	254 °C
CCCCCCCCn1cc[n+](C)c1.[Cl-] [[C8mim] Cl]	243 °C
CCC[n+]1ccn(C)c1.[Cl-] [[C3mim] Cl]	282 °C
